# According to patent US20170190671A1, “BIS(ARYL)CATECHOL DERIVATIVES AS HERBICIDES” (E I DU PONT DE NEMOURS AND COMPANY, priority 2014, published 2017):
# Legend:
# Assay type in all cases: in vivo
# [1] = system: ducksalad (Heteranthera limosa); experiment: Test B flooded paddy; details: Heteranthera limosa, 336 h; 250 g ai/ha, Flood, 13 to 15 days, scale 0 (no effect) to 100 (complete control); read-out: Plant response rating, Ducksalad
# Outline: (§1)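 Pots were flooded to 3 cm above the soil surface at treatment, compound applied directly to the paddy water, and that depth held throughout. Plants were kept in a greenhouse for 13 to 15 days, then visually rated against untreated controls.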
# rice (Oryza sativa) = experiment: Test B flooded paddy; details: Oryza sativa, 336 h; 250 g ai/ha, Flood, 13 to 15 days, scale 0 (no effect) to 100 (complete control); read-out: Plant response rating, Rice
# Outline: as §1
# [2] = system: barnyardgrass (Echinochloa crus-galli); experiment: Test B flooded paddy; details: Echinochloa crus-galli, 336 h; 250 g ai/ha, Flood, 13 to 15 days, scale 0 (no effect) to 100 (complete control); read-out: Plant response rating, Barnyardgrass
# Outline: as §1
# [3] = system: sedge, umbrella (small-flower umbrella sedge, Cyperus difformis); experiment: Test B flooded paddy; details: Cyperus difformis, 336 h; 250 g ai/ha, Flood, 13 to 15 days, scale 0 (no effect) to 100 (complete control); read-out: Plant response rating, Sedge, Umbrella
# Outline: as §1
# [4] = system: lambsquarters (Chenopodium album); experiment: Test C preemergence; details: Chenopodium album, pre-emergence, 336 h, scale 0 to 100, read-out: Plant response rating, Lambsquarters
# Outline: (§2)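 Greenhouse test; preemergence to seeds in loam/sand soil, or postemergence spray to 2-18 cm, 1- to 4-leaf plants in peat/vermiculite medium; compound in non-phytotoxic solvent plus surfactant. Visual rating vs controls at 13-15 d, 0 = no effect, 100 = complete control.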
# [5] = system: barnyardgrass (Echinochloa crus-galli); experiment: Test C preemergence; details: Echinochloa crus-galli, pre-emergence, read-out: Plant response rating, Barnyardgrass
# Outline: as §2
# kochia (Kochia scoparia) [6] = experiment: Test A preemergence; details: Bassia scoparia, pre-emergence, 240 h
# Outline: (§3)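 Greenhouse pot test, loam/sand soil. Formulation: non-phytotoxic solvent mix plus surfactant. Pre: directed spray onto soil after sowing. Post: plants at 1–2 leaf, 2–10 cm. Rated visually vs untreated controls at ~10 d, 0 (no effect) to 100 (complete control).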
# [7] = system: ragweed (common ragweed, Ambrosia elatior); experiment: Test A preemergence; details: Ambrosia artemisiifolia, pre-emergence, 240 h
# Outline: as §3
# [8] = system: Italian ryegrass (Lolium multiflorum); experiment: Test A preemergence; details: Lolium multiflorum, pre-emergence, 240 h
# Outline: as §3
# [9] = system: barnyardgrass (Echinochloa crus-galli); experiment: Test A preemergence; details: Echinochloa crus-galli, pre-emergence, 240 h
# Outline: as §3
# [10] = system: giant foxtail (Setaria faberii); experiment: Test A preemergence; details: Setaria faberi, pre-emergence, 240 h
# Outline: as §3
# [11] = system: pigweed (Amaranthus retroflexus); experiment: Test A preemergence; details: Amaranthus retroflexus, pre-emergence, 240 h
# Outline: as §3
# corn (Zea mays) = experiment: Test A postemergence; details: Zea mays, post-emergence, 240 h, 0 to 100 scale
# Outline: as §3
# kochia (Kochia scoparia) [12] = experiment: Test A postemergence; details: Bassia scoparia, post-emergence, 240 h, 0 to 100 scale, read-out: Plant response rating, Kochia
# Outline: as §3
# [13] = system: galium (catchweed bedstraw, Galium aparine); experiment: Test A postemergence; details: Galium, post-emergence, 240 h, 0 to 100 scale, read-out: Plant response rating, Galium
# Outline: as §3
# [14] = system: ragweed (common ragweed, Ambrosia elatior); experiment: Test A postemergence; details: Ambrosia artemisiifolia, post-emergence, 240 h, 0 to 100 scale, read-out: Plant response rating, Ragweed
# Outline: as §3
# [15] = system: Italian ryegrass (Lolium multiflorum); experiment: Test A postemergence; details: Lolium multiflorum, post-emergence, 240 h, 0 to 100 scale, read-out: Plant response rating, Ryegrass, Italian
# Outline: as §3
# [16] = system: blackgrass (Alopecurus myosuroides); experiment: Test A postemergence; details: Alopecurus myosuroides, post-emergence, 240 h, 0 to 100 scale, read-out: Plant response rating, Blackgrass
# Outline: as §3
# [17] = system: wheat (Triticum aestivum); experiment: Test A postemergence; details: Triticum aestivum, post-emergence, 240 h, 0 to 100 scale, read-out: Plant response rating, Wheat
# Outline: as §3
# [18] = system: barnyardgrass (Echinochloa crus-galli); experiment: Test A postemergence; details: Echinochloa crus-galli, post-emergence, 240 h, 0 to 100 scale, read-out: Plant response rating, Barnyardgrass
# Outline: as §3
# [19] = system: giant foxtail (Setaria faberii); experiment: Test A postemergence; details: Setaria faberi, post-emergence, 240 h, 0 to 100 scale, read-out: Plant response rating, Foxtail, Giant
# Outline: as §3
# [20] = system: pigweed (Amaranthus retroflexus); experiment: Test A postemergence; details: Amaranthus retroflexus, post-emergence, 240 h, 0 to 100 scale, read-out: Plant response rating, Pigweed
# Outline: as §3
compound,measurement,setting,value
"FC(F)c1cccc(Oc2ncc(Cl)cn2)c1Oc1ncc(Cl)cn1 [Compound 46, 2,2′-[[3-(difluoromethyl)-1,2-phenylene]bis(oxy)]bis[5-chloropyrimidine]]",pest or weed control at 250 g/ha,[1],80%
same,plant injury at 250 g/ha,rice (Oryza sativa),10%
same,pest or weed control at 250 g/ha,[2],0%
same,pest or weed control at 250 g/ha,[3],65%
same,pest or weed control at 31 g/ha,"[4]; 31 g ai/ha, preemergence",100%
same,pest or weed control at 62 g/ha,"[4]; 62 g ai/ha, preemergence",100%
same,pest or weed control at 125 g/ha,"[4]; 125 g ai/ha, preemergence",100%
same,pest or weed control at 16 g/ha,"[4]; Preemergence, 16 g ai/ha",75%
same,pest or weed control at 31 g/ha,"[5]; 31 g ai/ha, preemergence, scale 0 to 100",70%
same,pest or weed control at 62 g/ha,"[5]; 62 g ai/ha, preemergence, scale 0 to 100",100%
same,pest or weed control at 125 g/ha,"[5]; 125 g ai/ha, preemergence, scale 0 to 100",100%
same,pest or weed control at 16 g/ha,"[5]; Preemergence, 16 g ai/ha, scale 0 to 100 (0 no effect, 100 complete control)",15%
same,pest or weed control at 125 g/ha,"kochia (Kochia scoparia) [6]; 125 g ai/ha, 0 to 100 scale (0 no effect, 100 complete control), read-out: Kochia plant response rating",100%
same,pest or weed control at 500 g/ha,"kochia (Kochia scoparia) [6]; 500 g ai/ha, 0 to 100 scale, read-out: Plant response rating, Kochia",100%
same,pest or weed control at 125 g/ha,"[7]; 125 g ai/ha, 0 to 100 scale (0 no effect, 100 complete control), read-out: Ragweed plant response rating",90%
same,pest or weed control at 500 g/ha,"[7]; 500 g ai/ha, 0 to 100 scale, read-out: Plant response rating, Ragweed",100%
same,pest or weed control at 125 g/ha,"[8]; 125 g ai/ha, 0 to 100 scale (0 no effect, 100 complete control), read-out: Ryegrass, Italian plant response rating",30%
same,pest or weed control at 500 g/ha,"[8]; 500 g ai/ha, 0 to 100 scale, read-out: Plant response rating, Ryegrass, Italian",80%
same,pest or weed control at 125 g/ha,"[9]; 125 g ai/ha, 0 to 100 scale (0 no effect, 100 complete control), read-out: Barnyardgrass plant response rating",90%
same,pest or weed control at 500 g/ha,"[9]; 500 g ai/ha, 0 to 100 scale, read-out: Plant response rating, Barnyardgrass",100%
same,pest or weed control at 125 g/ha,"[10]; 125 g ai/ha, 0 to 100 scale (0 no effect, 100 complete control), read-out: Foxtail, Giant plant response rating",100%
same,pest or weed control at 500 g/ha,"[10]; 500 g ai/ha, 0 to 100 scale, read-out: Plant response rating, Foxtail, Giant",100%
same,pest or weed control at 125 g/ha,"[11]; 125 g ai/ha, 0 to 100 scale (0 no effect, 100 complete control), read-out: Pigweed plant response rating",100%
same,pest or weed control at 500 g/ha,"[11]; 500 g ai/ha, 0 to 100 scale, read-out: Plant response rating, Pigweed",100%
same,"Corn plant response rating (crop injury, 0 = no effect, 100 = complete kill) at 125 g/ha",corn (Zea mays); 125 g ai/ha,90%
same,"Corn plant response rating (crop injury, 0 = no effect, 100 = complete kill) at 500 g/ha",corn (Zea mays); 500 g ai/ha,100%
same,pest or weed control at 125 g/ha,kochia (Kochia scoparia) [12]; 125 g ai/ha,100%
same,pest or weed control at 500 g/ha,kochia (Kochia scoparia) [12]; 500 g ai/ha,60%
same,pest or weed control at 125 g/ha,[13]; 125 g ai/ha,100%
same,pest or weed control at 500 g/ha,[13]; 500 g ai/ha,100%
same,pest or weed control at 125 g/ha,[14]; 125 g ai/ha,100%
same,pest or weed control at 500 g/ha,[14]; 500 g ai/ha,100%
same,pest or weed control at 125 g/ha,[15]; 125 g ai/ha,90%
same,pest or weed control at 500 g/ha,[15]; 500 g ai/ha,100%
same,pest or weed control at 125 g/ha,[16]; 125 g ai/ha,90%
same,pest or weed control at 500 g/ha,[16]; 500 g ai/ha,100%
same,plant injury at 125 g/ha,[17]; 125 g ai/ha,50%
same,plant injury at 500 g/ha,[17]; 500 g ai/ha,100%
same,pest or weed control at 125 g/ha,[18]; 125 g ai/ha,90%
same,pest or weed control at 500 g/ha,[18]; 500 g ai/ha,100%
same,pest or weed control at 125 g/ha,[19]; 125 g ai/ha,90%
same,pest or weed control at 500 g/ha,[19]; 500 g ai/ha,100%
same,pest or weed control at 125 g/ha,[20]; 125 g ai/ha,100%
same,pest or weed control at 500 g/ha,[20]; 500 g ai/ha,100%
